Data on four molecules can be found in patent US8357659B2, “Method of treating pain or itching with APETx2 peptide toxin” (priority 2008, dated 2013).

Series [1] relates to ASIC type current of cutaneous neurons of the spinal ganglia. In words: Whole cell patch clamp of native ASIC currents in cutaneous neurons of the spinal ganglia. Format: cell-based, rat. The protocol:
The neurons of the dorsal root ganglion (spinal ganglia or DRG) innervating the skin were labelled by subcutaneous injections of 5×1 μl of Dil fluorescent dye (5% DMSO, Molecular Probes) in the dorsal side of the rats' hind paws. The dye was injected two weeks before the rats were sacrificed in order to prepare a primary culture of dorsal root ganglion.
The lumbar dorsal root ganglia L3-L6 of Wistar rats (8-11 weeks) were dissected bilaterally and separated enzymatically with 0.1% collagenase. The cells were subsequently plated on 35 mm Petri dishes covered with collagen and cultured at 37° C. (95% air/5% CO2) in DMEM medium containing 5% of foetal calf serum. The electrophysiological experiments were performed 1 to 8 days after seeding.
(§1) The whole cell configuration of the patch clamp method was used ([ref. 48]) in order to measure the membrane currents (imposed voltage) or the membrane potentials (imposed current). The recordings were performed at ambient temperature using an RK-400 amplifier (Bio-Logic Science Instruments) with a 3 kHz low-pass filter (Krohn-Hite). The data were sampled at 10 kHz, digitised using a Digidata 1322A A-D/D-A converter (Axon Instruments) and recorded on a hard disk using pClamp software (version 9.2.0.11, Axon Instruments). The recording probes (1-4 MOhms) contained (in mM): 135 KCl, 2.5 Na2-ATP, 2 MgCl2, 2.1 CaCl2, 5 EGTA, 10 HEPES (pH 7.25 with KOH). Various different buffers and drugs of interest were added to the transfected cells considered individually using an internally developed microinfusion system controlled by microelectrovalves (Sirai, Italy) allowing rapid changes of solution. The control bath solution contained (in mM): 145 NaCl, 5 KCl, 2 MgCl2, 2 CaCl2, 10 HEPES (pH 7.4 with NaOH). The MES medium was used instead of the HEPES medium in order to buffer the solution at a pH ranging from 6 to 5, and the ASIC currents were induced by rapid changes of a control solution at pH 7.4 to an acid test solution using the microinfusion system. For the experiments conducted on the DRG neurons, glucose (10 mM) was added to the control bath solution. Hypertonic conditions were obtained by adding mannitol or sucrose to the external bath solutions, as indicated in the text.
On the technique in general: Patch clamp records ionic current or voltage across a cell membrane.

The target in series [2] is T1, ASIC3 (rat clone) in F-11 cells (Rattus norvegicus, UniProt O35240).
T1 construct: expressed in transfected cells; host or cells: F-11 cells, vector pCI-ASIC3r co-transfected with pIRES2-EGFP
T1 sequence (O35240 1-533): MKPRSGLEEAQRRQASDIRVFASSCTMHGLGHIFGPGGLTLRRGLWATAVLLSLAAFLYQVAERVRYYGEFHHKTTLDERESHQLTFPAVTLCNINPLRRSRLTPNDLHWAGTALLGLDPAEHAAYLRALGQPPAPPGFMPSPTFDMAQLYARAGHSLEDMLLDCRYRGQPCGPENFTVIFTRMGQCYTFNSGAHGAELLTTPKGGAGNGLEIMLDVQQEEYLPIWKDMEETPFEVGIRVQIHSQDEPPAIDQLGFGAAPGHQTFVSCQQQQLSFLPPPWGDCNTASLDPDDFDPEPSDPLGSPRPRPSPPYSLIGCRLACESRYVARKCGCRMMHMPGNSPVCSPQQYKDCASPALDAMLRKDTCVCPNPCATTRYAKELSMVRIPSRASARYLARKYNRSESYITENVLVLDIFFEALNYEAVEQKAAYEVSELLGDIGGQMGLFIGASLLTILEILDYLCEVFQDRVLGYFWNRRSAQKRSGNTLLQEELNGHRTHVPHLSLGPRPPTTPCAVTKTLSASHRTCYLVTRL
In words: Whole cell patch clamp of recombinant ASIC3 in transfected F-11 cells. Format: cell-based. Here is the method:
(§2) F-11 cells (refs. 44, 45, 46, 47]) were cultured in 5% of CO2 at a density of 50,000 cells per 35 mm Petri dish. The culture medium contained HAM F-12 medium (Invitrogen) supplemented with 15% foetal bovine serum (ICN Biomedicals), 1×HAT (sodium hypoxanthine, aminopterine and thymidine), 200 μg/ml of allo-4-hydroxy-L-proline (Sigma-Aldrich) and 1% antibiotics. One day after seeding, the cells were transfected with ASIC1a or ASIC3 DNAc (rat clones) using Lipofectamine™ (Invitrogen) according to the manufacturer's instructions using the vectors pCI-ASIC1ar+pIRES2-EGFP (ratio 1:2) or pCI-ASIC3r+pIRES2-EGFP (ratio 1:10) ([ref. 36]), quoted above). For the experiments concerning the human ASIC3 clone (refer to experiments on the effects of the APETx2 toxin on the human form of the ASIC3 channel), the cells were transfected with the DNAc of human ASIC3 using the transfection agent JetPEI (Polypus Transfection) according to the manufacturer's instructions with the aid of the vector pASIC3h-IRES-EGFP. The cells were used for the patch clamp experiments (an electrophysiological method for recording ionic currents travelling through cell membranes) 2 to 4 days after transfection.
as §1

The target in series [3] is T2, ASIC1a (rat clone) in F-11 cells (Rattus norvegicus, UniProt P55926).
T2 construct: expressed in transfected cells; host or cells: F-11 cells, vector pCI-ASIC1ar co-transfected with pIRES2-EGFP
T2 sequence (P55926 1-526): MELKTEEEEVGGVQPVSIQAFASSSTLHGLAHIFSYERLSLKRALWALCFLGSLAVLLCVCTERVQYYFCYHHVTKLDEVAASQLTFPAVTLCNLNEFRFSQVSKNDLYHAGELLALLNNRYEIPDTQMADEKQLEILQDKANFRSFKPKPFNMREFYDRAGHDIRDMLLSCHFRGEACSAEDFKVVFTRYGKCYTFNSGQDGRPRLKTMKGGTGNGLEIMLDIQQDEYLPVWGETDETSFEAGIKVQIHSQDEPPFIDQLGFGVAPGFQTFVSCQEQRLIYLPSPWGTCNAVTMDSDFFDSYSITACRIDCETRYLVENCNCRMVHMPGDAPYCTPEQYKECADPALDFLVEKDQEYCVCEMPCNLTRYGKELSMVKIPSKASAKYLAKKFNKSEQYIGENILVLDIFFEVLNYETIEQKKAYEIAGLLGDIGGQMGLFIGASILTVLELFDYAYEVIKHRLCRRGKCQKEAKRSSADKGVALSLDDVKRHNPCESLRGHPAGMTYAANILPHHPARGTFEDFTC
In words: Whole cell patch clamp of recombinant ASIC1a in transfected F-11 cells. Format: cell-based. Here is the method:
as §2
The whole cell configuration of the patch clamp method was used ([ref. 48]) in order to measure the membrane currents (imposed voltage) or the membrane potentials (imposed current). The recordings were performed at ambient temperature using an RK-400 amplifier (Bio-Logic Science Instruments) with a 3 kHz low-pass filter (Krohn-Hite). The data were sampled at 10 kHz, digitised using a Digidata 1322A A-D/D-A converter (Axon Instruments) and recorded on a hard disk using pClamp software (version 9.2.0.11, Axon Instruments). The recording probes (1-4 MOhms) contained (in mM): 135 KCl, 2.5 Na2-ATP, 2 MgCl2, 2.1 CaCl2, 5 EGTA, 10 HEPES (pH 7.25 with KOH). Various different buffers and drugs of interest were added to the transfected cells considered individually using an internally developed microinfusion system controlled by microelectrovalves (Sirai, Italy) allowing rapid changes of solution. […]

For series [4], the system named is cutaneous pain induced by moderate acidification. In words: Nociceptive behaviour in rats after subcutaneous injection of moderately acidic solutions. Format: in vivo, rat. Here is the method: Adult (7-8 weeks' old) male Wistar rats (Charles River, France) were placed in plastic cages with a nyctohemeral period of 12 h (with light between 8 a.m. and 8 p.m.) and with free access to food and water. The rats were left to acclimatize for at least one week before the experiments. For the behavioural experiments, the rats were placed in a transparent observation chamber where they were acclimatized for 20-30 minutes. They were subsequently immobilised while 20 μl of saline solution (0.9% or 2% of NaCl+20 mM of HEPES, […] or 60 nM of PcTx1 toxin), was administered subcutaneously to the dorsal side of the right hind paw using a 30G needle connected to a 100 μl Hamilton syringe. The nociceptive behaviour (i.e. the number of hind leg quiverings) was recorded over a 5-minute period, starting immediately after the injection ([ref. 59]).

Series [5] deals with thermal hyperalgesia induced by CFA. In words: Inflammation-induced (CFA) thermal hyperalgesia in rats, hotplate at 50° C. Format: in vivo, rat. Here is the method: Sensitivity to heat of adult male Wistar rats (Charles River, France) was tested by measuring the time taken by the animal to retract one of its hind paws when placed on a hotplate at 50° C. (Bioseb, France), before and after induction of inflammation by subcutaneous injection of a solution of Freund's complete adjuvant (CFA, Sigma-Aldrich, France). The rats were acclimatised to the experimentation room for at least 30 minutes and each measurement was performed in duplicate. An initial measurement was performed before induction of inflammation. The rats were subsequently anaesthetised (isofluorane) while 150 μl of CFA diluted 1:1 with a saline solution (0.9% NaCl) containing either toxins (PcTx1 or APETx2, 120 nM and 20 μM, respectively) or the vehicle was injected (26G needle mounted on a 1 ml syringe) subcutaneously into the plantar side of one of the hind paws. The time taken by the animal to lift the injected hind paw was subsequently measured at 50° C., 2, 4 and 24 hours after the injection of CFA.
(§3) ASIC3 channel-specific iRNA (no. 1121; CTACACGCTATGCCAAGGA, SEQ ID NO: 1) and its control (no. 1121S; GCTCACACTACGCAGAGAT, SEQ ID NO: 2) were designed in the laboratory and were synthesised by MWG Biotech Company (Germany). The ASIC3-specific iRNA was validated by quantification of the messenger RNA levels by quantitative RT-PCR for each ASIC channel and for the TRPV1 channel, following intrathecal injections into the lumbar region of the spinal cord of rats, at a rate of one injection per day for 3 consecutive days, before the animal was sacrificed. The same procedure was followed before induction of inflammation by CFA. Each injection was 10 μl in volume, containing 2 μg of iRNA mixed with the transfection agent i-Fect (Neuromics) at a ratio of 1 to 4.

For a further series, the system named is ASIC3 messenger RNA. In words: Quantitative RT-PCR of channel messenger RNA levels in spinal ganglia after intrathecal iRNA. Format: in vivo, rat. The settings on record: 2 μg per injection, one per day for 3 days, other ASIC and TRPV1 channels not reduced.
From the text: as §3

As to `CCCCC/C=C\C/C=C\C/C=C\C/C=C\CCCC(=O)O` [arachidonic acid], the “excitability of the cutaneous neurons (triggering of the action potential)” value in series [1] (FIG. 2C) is recorded as “increased excitability”. Also, the “increase of the ASIC current induced by native pH 7.0” value in series [1] (pH 7.0, n=6, P=0.06) turned out to be 172±65%. Further, the “non-inactivating ASIC3 window current” value in series [2] (FIG. 4D) is recorded as “markedly increased”. Also, the “increase of the ASIC3 current” value in series [2] (activated by pH 6.6, n=7, P=0.45) is reported as 40±22%; in series [2] (activated by pH 7.0, n=9) it was 493±84%; in series [2] (activated by pH 7.2, n=23), 547±103%. Moreover, the “increase of the ASIC1a current” value in series [3] (pH 6.6, n=2) worked out at 21±15%; in series [3] (pH 7.0, n=5, P=0.06), 183±54%. The “effect on ASIC1a current” value in series [3] (pH 7.2) was “does not have any effect”. Further, in series [4] (co-injected 2% NaCl (~600 mosmol.kg^−1) and 10 mM AA at pH 6.9, subcutaneous, hind paw, 5-minute period, n=25, versus 11.1±2.54 at pH 6.9 alone), the quivering score is 20.42±2.53.

As for `OC[C@@H](O)[C@@H](O)[C@H](O)[C@H](O)CO` [mannitol], in series [2] (600 mosmol.kg^−1 with mannitol, activated by pH 7.2, n=20), the “increase of the ASIC3 current by hyperosmolarity” value is given as 148±20%.

Turning to “ASIC3 channel-specific iRNA: interfering RNA directed against ASIC3 messenger RNA, CTACACGCTATGCCAAGGA, SEQ ID NO: 1 (listed as DNA, chemistry not given here)”, the “development of inflammatory thermal hyperalgesia” value in series [5] (intrathecal iRNA during the 3 days preceding CFA, versus random sequence control iRNA) was “do not develop any inflammatory thermal hyperalgesia”. Further, the “expression of the ASIC3 channels in the sensory neurons” value with ASIC3 messenger RNA was “marked and exclusive reduction”.

As to “PcTx1: animal peptide toxin, selective inhibitor of the homomer channels ASIC1a (EDCIPKWKGCVNRHGDCCEGLECWKRRRSFEVCVPKTPKT)”, the “inhibition by the toxin of the ASIC type current induced by pH 6.6” value in series [1] (in 4.7% (2/43) of neurons, ASIC1a homomer current) was more than 90%; in series [1] (in 23.3% (10/43) of neurons, ASIC3 type currents), less than 10%. In addition, the “behaviour in response to acid pain with inflammatory signals” value in series [4] (pH 6.9 + 2% NaCl + AA, 10 μM APETx2 or 60 nM PcTx1 in injected solution, FIG. 5A) is on record as “devoid of any significant effect”. In addition, the “development of thermal hyperalgesia” value in series [5] (toxin concomitantly injected with CFA (APETx2 20 μM, PcTx1 120 nM), four hours after CFA) is “devoid of any significant effect”.
